From PubChem BioAssay (NCI)
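GI50: concentration for 50% inhibition of growth. TGI marks complete inhibition of growth.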

How the values were obtained:
Experiment in all cases: NCI-60 cell line screen, 384-well format
[1] = tested on: HOP-92 NSCLC
[2] = tested on: T-47D breast
[3] = tested on: MDA-MB-231 breast
[4] = tested on: UACC-257 melanoma
[5] = tested on: OVCAR-5 ovarian
[6] = tested on: SK-MEL-2 melanoma
[7] = tested on: COLO 205 colon
[8] = tested on: 786-0 renal
[9] = tested on: HCT-15 colon
[10] = tested on: MALME-3M melanoma
[11] = tested on: SK-MEL-28 melanoma
[12] = tested on: NCI-H460 NSCLC
[13] = tested on: SK-OV-3 ovarian
[14] = tested on: OVCAR-8 ovarian
[15] = tested on: ACHN renal
[16] = tested on: A549 NSCLC
[17] = tested on: A498 renal
[18] = tested on: U251 glioblastoma
[19] = tested on: K-562 leukemia
[20] = tested on: CAKI-1 renal
[21] = tested on: NCI/ADR-RES ovarian
[22] = tested on: SN12C renal
[23] = tested on: NCI-H322M lung
[24] = tested on: NCI-H522 lung
[25] = tested on: M14 melanoma
[26] = tested on: OVCAR-4 ovarian
[27] = tested on: PC-3 prostate
[28] = tested on: SK-MEL-5 melanoma
[29] = tested on: CCRF-CEM leukemia
[30] = tested on: LOX IMVI melanoma
[31] = tested on: SR leukemia
[32] = tested on: KM12 colon
[33] = tested on: TK-10 renal
[34] = tested on: SF-295 CNS
[35] = tested on: MDA-MB-435 melanoma
[36] = tested on: HOP-62 NSCLC
[37] = tested on: MCF7 breast
[38] = tested on: HCC-2998 colon
[39] = tested on: UACC-62 melanoma
[40] = tested on: MOLT-4 leukemia
[41] = tested on: UO-31 renal
[42] = tested on: HT29 colon
[43] = tested on: SF-268 CNS
[44] = tested on: HL-60(TB) leukemia
[45] = tested on: SNB-19 CNS
[46] = tested on: SW-620 colon
[47] = tested on: BT-549 breast
[48] = tested on: IGROV1 ovarian
[49] = tested on: DU-145 prostate
[50] = tested on: SF-539 CNS
[51] = tested on: RXF 393 renal
[52] = tested on: RPMI-8226 leukemia
[53] = tested on: OVCAR-3 ovarian
[54] = tested on: NCI-H226 lung
[55] = tested on: NCI-H23 lung
[56] = tested on: MDA-MB-468 breast
[57] = tested on: HCT-116 colon

CO[C@@H]1/C=C\C=C(/C)C(=O)NC2=CC(=O)C(NCCN(C)C)=C(C[C@@H](C)C[C@@H](OC)[C@@H](O)[C@H](C)/C=C(\C)[C@H]1OC(N)=O)C2=O
GI50 [1]: 36.4 nM
TGI [1]: 137 nM
GI50 [2]: 102 nM
TGI [2]: 790 nM
GI50 [3]: 23.7 nM
TGI [3]: 68.1 nM
GI50 [4]: 19 nM
TGI [4]: 99 nM
GI50 [5]: 36 nM
TGI [5]: 173 nM
GI50 [6]: < 10 nM
TGI [6]: 27.5 nM
GI50 [7]: < 10 nM
TGI [7]: < 10 nM
GI50 [8]: 34.5 nM
TGI [8]: 174 nM
GI50 [9]: 84.3 nM
TGI [9]: 1310 nM
GI50 [10]: < 10 nM
TGI [10]: < 10 nM
GI50 [11]: 12.5 nM
TGI [11]: 9.83 µM
GI50 [12]: < 10 nM
TGI [12]: < 10 nM
GI50 [13]: 12.5 nM
TGI [13]: 90.6 nM
GI50 [14]: 21.6 nM
TGI [14]: 48.3 nM
GI50 [15]: 128 nM
TGI [15]: 2540 nM
GI50 [16]: < 10 nM
TGI [16]: 673 nM
GI50 [17]: 50.8 nM
TGI [17]: 12.7 µM
GI50 [18]: < 10 nM
TGI [18]: 36.2 nM
GI50 [19]: 24.1 nM
TGI [19]: 85.3 nM
GI50 [20]: 52.7 nM
TGI [20]: 12.1 µM
GI50 [21]: 2180 nM
TGI [21]: 5.06 µM
GI50 [22]: 12 nM
TGI [22]: 41.6 nM
GI50 [23]: < 10 nM
TGI [23]: 3.4 µM
GI50 [24]: 13 nM
TGI [24]: 30.5 nM
GI50 [25]: < 10 nM
TGI [25]: 38 nM
GI50 [26]: 17.4 nM
TGI [26]: 359 nM
GI50 [27]: 19.9 nM
TGI [27]: 53.1 nM
GI50 [28]: < 10 nM
TGI [28]: 366 nM
GI50 [29]: 38.1 nM
TGI [29]: 138 nM
GI50 [30]: 18.6 nM
TGI [30]: 33.4 nM
GI50 [31]: 12.7 nM
TGI [31]: 27 nM
GI50 [32]: 15.2 nM
TGI [32]: 86.4 nM
GI50 [33]: 77.4 nM
TGI [33]: 846 nM
GI50 [34]: 27.7 nM
TGI [34]: 96.9 nM
GI50 [35]: 29.4 nM
TGI [35]: 1360 nM
GI50 [36]: 16.8 nM
TGI [36]: 66.1 nM
GI50 [37]: 13.2 nM
TGI [37]: 147 nM
GI50 [38]: < 10 nM
TGI [38]: 28.9 nM
GI50 [39]: < 10 nM
TGI [39]: 48.4 nM
GI50 [40]: 16.9 nM
TGI [40]: 33.7 nM
GI50 [41]: 368 nM
TGI [41]: 11.7 µM
GI50 [42]: < 10 nM
TGI [42]: 1080 nM
GI50 [43]: 24.8 nM
TGI [43]: 2320 nM
GI50 [44]: 21 nM
TGI [44]: 37.1 nM
GI50 [45]: 18.2 nM
TGI [45]: 2180 nM
GI50 [46]: < 10 nM
TGI [46]: 78.1 nM
GI50 [47]: < 10 nM
TGI [47]: < 10 nM
GI50 [48]: 22.6 nM
TGI [48]: 63.1 nM
GI50 [49]: < 10 nM
TGI [49]: 22.4 nM
GI50 [50]: < 10 nM
TGI [50]: 24.6 nM
GI50 [51]: < 10 nM
TGI [51]: 16.9 nM
GI50 [52]: 16.1 nM
TGI [52]: 35.4 nM
GI50 [53]: 23.3 nM
TGI [53]: 76.3 nM
GI50 [54]: 22.7 nM
TGI [54]: 84.5 nM
GI50 [55]: 24.1 nM
TGI [55]: 67.8 nM
GI50 [56]: 23.8 nM
TGI [56]: 54.3 nM
GI50 [57]: 26.9 nM
TGI [57]: 1340 nM
